# “Also recorded” adds a separate entry of the source. Peptide text beside a SMILES is read from it. * marks the point of attachment. βNA = c1ccc2cc(N*)ccc2c1
# Key:
# NK cells [1] = assay: CD107a mobilization after PMA/Ionomycin stimulation; assay type: cell-based, human; conditions: indicated doses of GPN, FIG. 14D-E
# Experimental: (§1) Functional assays were performed at 37° C. in complete medium (RPMI+10% FCS) for the times indicated. Purified NK cells were incubated with K562 target cells for 5 hours at a ratio of 1:1 in the presence of anti-CD107a-FITC (biolegend) for degranulation assays, or with the addition of Brefeldin A (GolgiPlug BD) for degranulation plus intracellular cytokine assays. Treatment with lysosomotropic reagents were performed for the duration of the assay using the following final concentrations; glycyl-L-phenylalanine-β-naphthylamide (GPN, 50 μM), mefloquine (10 μM), siramesine (10 μM), vacuolin-1 (10 μM). Stimulation with PMA (1 μg/mL) and ionomycin (0.5 μM), or with thapsigargin (1 μM) and/or U18666a (2 μg/mL) were performed for the times indicated, and the cells were stained for CD107a surface expression post-stimulation.
# NK cells [2] = assay: Degranulation (CD107a) and intracellular IFN-γ functional assay, NK cells stimulated with K562 target cells; assay type: cell-based, human; conditions: for IFN-γ response to K562 cells / degranulation (CD107a) in response to K562 cells: 5 h, 1:1 ratio, GPN 50 μM, mefloquine 10 μM, siramesine 10 μM, vacuolin-1 10 μM
# Experimental: as §1
# primary NK cells [3] = assay: Phospho-flow cytometry after CD16 ligation; assay type: cell-based, human; conditions: 1 h pre-treatment, GPN 50 μM or vacuolin-1 10 μM
# Experimental: Functional assays for phospho-flow cytometry were performed at 37° C. in complete medium in NK cell suspensions between 5-10 M/mL for 20 min. Cells were pre-treated for 1 h using GPN (50 μM) or vacuolin-1 (10 μM), after which biotinylated CD16 (Biolegend, clone 3G8) was added to final concentrations of 5 μg/mL each. After 1 min, the aliquot for the 0 min (unstimulated) sample was taken out and mixed with Fix Buffer I (BD Biosciences). After one additional minute, the stimulation was started by crosslinking the biotinylated antibodies via 50 μg/mL avidin (Thermo Fischer Scientific) and the aliquots for the 5 min, 10 min and 20 min samples were transferred into Fix Buffer I (BD bioscience) at the corresponding time points. Cells were fixed at 37° C. for 10 min, washed and re-suspended in PBS. To allow combination of the differently stimulated samples into one, two dimensional fluorescent cell barcoding (FCB) was utilized. Samples were stained in distinct concentrations of amine-reactive pacific blue succinimidyl ester (Thermo Fisher Scientific) for the time points (0 min-0.69 ng/mL, 5 min-6.25 ng/mL, 10 min-25 ng/mL and 20 min-100 ng/mL) in combination with amine-reactive pacific orange succinimidyl ester (Thermo Fisher Scientific) for the different stimulations (control—10 ng/mL, GPN—100 ng/mL and vacuolin-1-500 ng/mL). After 20 min at RT, samples were washed twice in wash solution (PBS supplemented with 1% FCS and 0.09% sodium azide), combined, permeabilized (Perm Buffer III, BD Biosciences) and stored at −80° C. For thawing, samples were incubated 20 min on ice. Then, they were washed in wash solution and stained with Alexa Fluor 647-conjugated phospho epitope-specific antibodies against ZAP70/syk (pY319/pY352), Lck (pY505), Erk1/2 (pT202/pY204) (BD Bioscience), NF-κB p65 (pS536) (Cell Signaling Technologies) or isotype control IgG1K (BD Biosciences) for 30 min at RT. After washing data was acquired on an LSR Fortessa (BD Biosciences) and analysed in with FlowJo v10.0.8 (TreeStar).
# NK cells [4] = assay: Viability of NK cells exposed to lysosomotropic compounds; assay type: cell-based, human; conditions: at the doses tested, FIG. 15A
# NK cells [5] = conditions: positive control, known property; cited from earlier work
# NK cells [6] = assay: Granzyme B expression by flow cytometry after IL-15 or IL-21 stimulation with or without signalling inhibitors; assay type: cell-based, human
# Text: Isolated PBMC were stained for flow cytometric analysis using an appropriate combination of the following antibodies, followed by the name of the clone in brackets: CD14-V500 (M5E2), CD19-V500 (HIB19), CD3-V500 (UCHT1), CD56 ECD (N901) CD57-PB (HCD57), CD57 purified (TB01), anti-mouse-IgM-EF650 (II/41), NKG2A-PE, APC or APC.AF750 (Z199), CD16-BV785 (3G8), KIR2DL3-FITC, KIR2DL1-APC or APC-Vio770 (REA284), KIR3DL1-AF700 or BV421 (D×9), KIR2DS4-QD585 (1847), KIR3DL2-biotin (D×31), KIR2DL2/L3/S2-PE.Cy5.5 (GL183), KIR2DL1/S1-PE.Cy7 (EB6) or PE-Vio770 (11 PB6). Dead cells were labelled using live/dead aqua (Life technologies). Biotin-conjugated antibodies were visualized using streptavidin-Qdot 585 or 605 (Life technologies). After surface staining, cells were fixed and permeabilized using a fixation/permeabilization kit (BD Bioscience Cytofix/Cytoperm) prior to intracellular staining with anti-granzyme B-A700 (GB11). Samples were acquired using an LSRII flow cytometer (Becton Dickinson) and data was analysed using FlowJo V10.0.8 (TreeStar).
# primary NK cells [7] = assay: Confocal imaging of primary NK cells exposed to PIKfyve inhibitors (LAMP-1 / granzyme B staining); assay type: cell-based, human; conditions: for secretory lysosome size: 1 μM overnight, LAMP-1 staining, FIG. 10
# Experimental: Sorted NK cells were prepared for confocal microscopy using fixation/permeabilization (BD Bioscience Cytofix/Cytoperm) prior to intracellular staining with mouse anti-human granzyme B-A647 (GB11), rabbit anti-human pericentrin (Ab4448) followed by Donkey anti-Rabbit IgG Alexa555 and donkey anti-mouse-A568. After staining, the fixed cells were adhered to glass cover slips using Cell Tak (Corning) and mounted using Pro-long Gold Antifade with DAPI. The cells were examined with a Zeiss LSM 710 confocal microscope (Carl Zeiss Microlmaging GmbH) equipped with an Ar-Laser Multiline (458/488/514 nm), a DPSS-561 10 (561 nm), a Laser diode 405-30 CW (405 nm), and a HeNe-laser (633 nm). The objective used was a Zeiss plan-Apochromat 63×NA/1.4 oil DICII. Image processing and analysis were performed with basic software ZEN 2011 (Carl Zeiss Microlmaging GmbH) and Imaris 7.7.2 (Bitplane AG). Confocal z-stacks were deconvolved using Huygens Essential 14.06 (Scientific Volume Imaging b.v.), and visualized with Imaris.
# Cells were surface-stained with anti-human HLA-ABC antibody (W6/32, BioLegend) prior to settlement on CelITak-coated slides for 20 minutes, followed by fixation with 4% paraformaldehyde. Intracellular staining was performed by incubation with anti-human LAMP-1 (Ab24170, Abcam) for 4h, followed by donkey anti-rabbit-A488 antibody (abcam) and donkey anti-mouse-A568 antibody (Abcam) and Hoechst33342.
# Where indicated, cells were stained with mouse anti-human granzyme B-A647 (GB11) instead of anti-HLA-ABC, followed by donkey anti-mouse-A568.
molecule,measurement,setting,value
"NCC(=O)N[C@@H](Cc1ccccc1)C(=O)Nc1ccc2ccccc2c1 [GPN, glycyl-L-phenylalanine-beta-naphthylamide] (H-Gly-Phe-βNA)",threshold for PMA/I-induced activation in self-specific NK cells,NK cells [1],reversed the higher threshold for PMA/I-induced activation
same,IFN-γ response to K562 cells,NK cells [2],reduced corresponding IFN-γ expression
same,degranulation (CD107a) in response to K562 cells,NK cells [2],abrogate specific degranulation
same,"propagation of down-stream signals, in particular NF-κB",primary NK cells [3],decreased
same,upstream signalling (ZAP70 and Lck phosphorylation) following ligation of CD16,primary NK cells [3],minimal effect
same,general cellular toxicity (NK cell viability),NK cells [4],none of these compounds showed any general cellular toxicity
"COC(=O)[C@H](CC(C)C)NC(=O)[C@@H](N)CC(C)C [LeuLeuOMe, L-Leucyl-L-leucine methyl ester]",induction of apoptosis in immune cells,NK cells [5],known to induce apoptosis in immune cells
OC(c1cc(C(F)(F)F)nc2c(C(F)(F)F)cccc12)C1CCCCN1 (stereo not shown) [Mefloquine],general cellular toxicity (NK cell viability),NK cells [4],none of these compounds showed any general cellular toxicity
Fc1ccc(-n2cc(CCCCN3CCC4(CC3)OCc3ccccc34)c3ccccc32)cc1 [Siramesine],general cellular toxicity (NK cell viability),NK cells [4],none of these compounds showed any general cellular toxicity
CCC(=O)N1CCN(c2ccc(-n3c(=O)ccc4cnc5ccc(-c6cnc7ccccc7c6)cc5c43)cc2C(F)(F)F)CC1 [Torin-1],cytokine-induced increase in granzyme B,"NK cells [6]; 24 h IL-15 or IL-21, self- and non-self-specific NK cells",reversed the cytokine-induced increase in granzyme B
same,pre-existing constitutive levels of granzyme B,"NK cells [6]; before cytokine stimulation, FIG. 6",did not further reduce
Cc1cccc(/C=N/Nc2cc(N3CCOCC3)nc(OCCc3ccccn3)n2)c1 [apilimod],secretory lysosome size,primary NK cells [7],increase in secretory lysosome size
Ic1cccc(/C=N/Nc2nc(N3CCOCC3)nc(N(c3ccccc3)c3ccccc3)n2)c1 [vacuolin-1],secretory lysosome size,primary NK cells [7],increase in secretory lysosome size
same,clustering of granzyme B within secretory lysosomes,"primary NK cells [7]; vacuolin-1 treatment, FIG. 11",clustering of Granzyme B inside the secretory lysosomes; also recorded: cause granzyme B to cluster within the large secretory lysosomes formed
same,IFN-γ response to K562 cells,NK cells [2],enhanced
same,degranulation (CD107a) in response to K562 cells,NK cells [2],enhanced
same,"NK cell function, compound alone","NK cells [2]; resting NK cells, no target cell stimulation",had no effect
same,"propagation of down-stream signals, in particular NF-κB",primary NK cells [3],increased
same,upstream signalling (ZAP70 and Lck phosphorylation) following ligation of CD16,primary NK cells [3],minimal effect
IL-15: cytokine used to prime NK cells,"granzyme B response to cytokine priming, CD56bright NK cells",NK cells [6]; CD56bright NK cells,responded to priming by IL-15
same,"granzyme B response to cytokine stimulation, CD56dim NK cells",NK cells [6],increases in the level of granzyme B
IL-21: cytokine used to prime NK cells,"granzyme B response to cytokine stimulation, CD56dim NK cells",NK cells [6],increases in the level of granzyme B
